According to publication PMC8584730, “Bacillus subtilis ANSB168 Producing D-alanyl-D-alanine Carboxypeptidase Could Alleviate the Immune Injury and Inflammation Induced by Ochratoxin A” (International Journal of Molecular Sciences, 2021):

How the values were obtained:
DacA = target: T1, DacA (Bacillus subtilis, UniProt P08750); test: HPLC-fluorescence of OTA hydrolysis; type: biochemical; settings: 37 °C, optimal pH 7.0; amide bond hydrolysis to ochratoxin alpha
T1 construct: mature form without signal peptide (forward primer encodes Met-Ala-Ser-Asp)
T1 sequence (P08750 32-443): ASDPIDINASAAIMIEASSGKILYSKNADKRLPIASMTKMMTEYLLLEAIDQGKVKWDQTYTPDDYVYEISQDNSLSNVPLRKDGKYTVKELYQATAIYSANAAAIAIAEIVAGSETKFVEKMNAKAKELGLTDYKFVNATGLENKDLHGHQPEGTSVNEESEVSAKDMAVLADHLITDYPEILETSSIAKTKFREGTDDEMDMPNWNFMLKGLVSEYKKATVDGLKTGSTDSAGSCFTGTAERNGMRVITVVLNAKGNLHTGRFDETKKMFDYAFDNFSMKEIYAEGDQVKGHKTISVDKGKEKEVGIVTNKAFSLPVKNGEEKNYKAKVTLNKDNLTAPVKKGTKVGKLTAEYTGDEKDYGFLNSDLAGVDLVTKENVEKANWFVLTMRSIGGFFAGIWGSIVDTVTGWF

DacB = target: T2, DacB (Bacillus subtilis, UniProt P35150); test: HPLC-fluorescence of OTA hydrolysis; type: biochemical; settings: 37 °C, optimal pH 7.5; amide bond hydrolysis to ochratoxin alpha
T2 construct: mature form without signal peptide (forward primer encodes Met-Ala-Ile-Asp-Val)
T2 sequence (P35150 28-382): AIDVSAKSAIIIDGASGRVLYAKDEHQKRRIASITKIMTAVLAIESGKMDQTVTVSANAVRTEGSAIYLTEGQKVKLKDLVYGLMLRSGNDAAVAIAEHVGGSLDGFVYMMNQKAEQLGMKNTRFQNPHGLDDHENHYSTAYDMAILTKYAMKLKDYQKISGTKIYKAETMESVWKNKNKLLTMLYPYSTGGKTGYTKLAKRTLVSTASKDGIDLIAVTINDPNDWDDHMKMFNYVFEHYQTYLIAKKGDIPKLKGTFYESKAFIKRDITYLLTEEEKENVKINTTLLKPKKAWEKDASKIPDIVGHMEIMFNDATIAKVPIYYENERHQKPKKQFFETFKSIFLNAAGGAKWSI

How did the Km (DacA) turn out when `C[C@@H]1Cc2c(Cl)cc(C(=O)N[C@@H](Cc3ccccc3)C(=O)O)c(O)c2C(=O)O1` [Ochratoxin A, 7-carboxyl-5-chloro-8-hydroxyl-3,4-dihydro-3R-methyl-isocoumarin-7-L-β-phenylalanine] was run?
The Km was 6.79 µM.

What about the Km (DacB) of the same compound?
Its Km is 2.82 µM.
